According to ChEMBL document CHEMBL1153316, “Selectivity profiling of DegP substrates and inhibitors” (Bioorg Med Chem, 2009):
Peptide text beside a SMILES is read from it.

Columns and labels:
[1] = Inhibition of trypsin assessed as specific activity at 0.5 mM; parameters: scale not given: the % may be the effect or the level left
[2] = biological target: Plasminogen (Homo sapiens) (UniProt P00747); experiment: Inhibition of plasmin assessed as specific activity at 0.5 mM; parameters: scale not given: the % may be the effect or the level left
[3] = Inhibition of subtilisin assessed as specific activity at 0.5 mM; parameters: scale not given: the % may be the effect or the level left
[4] = Inhibition of kallikrein assessed as specific activity at 0.5 mM; parameters: scale not given: the % may be the effect or the level left
[5] = biological target: Prothrombin (Homo sapiens) (UniProt P00734); experiment: Inhibition of thrombin assessed as specific activity at 0.5 mM; parameters: scale not given: the % may be the effect or the level left
[6] = Inhibition of elastase assessed as specific activity at 0.5 mM; parameters: scale not given: the % may be the effect or the level left
Escherichia coli [7] = experiment: Inhibition of Escherichia coli degP assessed as specific activity at 0.5 mM; parameters: scale not given: the % may be the effect or the level left
Escherichia coli [8] = experiment: Activity at Escherichia coli degP
[9] = Inhibition of chymotrypsin assessed as specific activity at 0.5 mM; parameters: scale not given: the % may be the effect or the level left
[10] = biological target: Prothrombin (Homo sapiens) (UniProt P00734); experiment: Inhibition of thrombin assessed as residual proteolytic activity at 0.5 mM
Escherichia coli [11] = experiment: Inhibition of Escherichia coli degP assessed as residual proteolytic activity at 0.5 mM
[12] = biological target: Plasminogen (Homo sapiens) (UniProt P00747); experiment: Inhibition of plasmin assessed as residual proteolytic activity at 0.5 mM
[13] = Inhibition of elastase assessed as residual proteolytic activity at 0.5 mM
[14] = Inhibition of subtilisin
[15] = Inhibition of Escherichia coli degP
[16] = Inhibition of subtilisin assessed as residual proteolytic activity at 0.5 mM
[17] = Inhibition of elastase
[18] = Inhibition of kallikrein assessed as residual proteolytic activity at 0.5 mM
[19] = Inhibition of trypsin assessed as residual proteolytic activity at 0.5 mM
[20] = Inhibition of chymotrypsin assessed as residual proteolytic activity at 0.5 mM

Chain of Plasminogen (Homo sapiens) (P00747 97-580 limits assumed): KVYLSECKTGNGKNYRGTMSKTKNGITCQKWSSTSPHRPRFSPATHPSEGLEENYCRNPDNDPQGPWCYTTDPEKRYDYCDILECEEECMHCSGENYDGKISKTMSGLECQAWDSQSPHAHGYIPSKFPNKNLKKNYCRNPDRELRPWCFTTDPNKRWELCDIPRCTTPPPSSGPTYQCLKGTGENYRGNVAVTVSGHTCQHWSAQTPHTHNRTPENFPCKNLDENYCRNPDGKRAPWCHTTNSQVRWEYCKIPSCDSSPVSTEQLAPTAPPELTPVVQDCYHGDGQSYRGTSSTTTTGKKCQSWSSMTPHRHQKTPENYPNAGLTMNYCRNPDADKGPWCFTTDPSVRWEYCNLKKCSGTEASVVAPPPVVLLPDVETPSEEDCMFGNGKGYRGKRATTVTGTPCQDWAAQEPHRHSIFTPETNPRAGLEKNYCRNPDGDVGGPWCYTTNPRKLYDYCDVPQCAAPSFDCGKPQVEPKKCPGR
Chain of Plasminogen (Homo sapiens) (P00747 581-810 limits assumed): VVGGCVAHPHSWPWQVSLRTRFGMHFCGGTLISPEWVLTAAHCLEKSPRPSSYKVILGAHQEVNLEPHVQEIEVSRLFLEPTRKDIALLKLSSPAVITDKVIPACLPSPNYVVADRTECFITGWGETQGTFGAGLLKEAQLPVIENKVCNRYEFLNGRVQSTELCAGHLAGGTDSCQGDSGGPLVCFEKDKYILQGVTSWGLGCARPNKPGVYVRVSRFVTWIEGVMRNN

Row | Structure (SMILES) | Activity [10] [%] | Activity (Escherichia coli [11]) [%] | Activity [12] [%] | Activity [13] [%] | Activity [16] [%] | Activity [18] [%] | Activity [19] [%] | Activity [20] [%] | further results
1 | CSCC[C@H](NC(=O)[C@@H]1CCCN1C(=O)[C@@H](N)CC(=O)O)C(=O)N[C@@H](Cc1ccccc1)C(=O)N[C@@H](CCCCN)C(=O)N[C@@H](CC(C)C)C(=O)N[C@H](C(=O)Nc1ccc([N+](=O)[O-])cc1)C(C)C (HELM PEPTIDE1{D.P.M.F.K.L.V.[O=[N+]([O-])c1ccc(N[*:1])cc1]}$$$$V2.0) | – | – | – | – | – | – | – | – | Activity [1]: < 1%; Activity [2]: < 1%; Activity [3]: 1%; Activity [4]: < 1%; Activity [5]: < 1%; Activity [6]: 4%; Activity (Escherichia coli [7]): 473%; Km (Escherichia coli [8]): 600 µM; Vmax (Escherichia coli [8]): 1.2 µmol/min; Activity [9]: < 1%
2 | CSCC[C@H](NC(=O)[C@@H]1CCCN1C(=O)[C@@H](N)CO)C(=O)N[C@@H](Cc1ccccc1)C(=O)N[C@@H](CCCCN)C(=O)NCC(=O)N[C@H](C(=O)CCl)C(C)C (HELM PEPTIDE1{S.P.M.F.K.G.V.[ClC[*:1]]}$$$$V2.0) | 96 | 3 | 81 | < 1 | < 1 | 101 | 354 | 92 | IC50 [14]: 0.001 µM; IC50 [15]: 75 µM; IC50 [17]: 220 µM
3 | CSCC[C@H](NC(=O)[C@H](CCSC)NC(=O)[C@@H]1CCCN1C(=O)[C@H](CC(C)C)NC(=O)[C@@H](NC(=O)[C@H](CC(N)=O)NC(=O)[C@H](Cc1ccccc1)NC(=O)[C@@H](NC(=O)[C@@H]1CCCN1)C(C)C)[C@@H](C)O)C(=O)NCC(=O)N[C@@H](CCCCN)C(=O)N[C@@H](C)C(=O)N[C@@H](CO)C(=O)N1CCC[C@H]1C(=O)N[C@H](C(=O)CCl)C(C)C (HELM PEPTIDE1{P.V.F.N.T.L.P.M.M.G.K.A.S.P.V.[ClC[*:1]]}$$$$V2.0) | 101 | 63 | 62 | < 1 | 143 | 122 | 591 | 48 | –
